Results reported in patent US20250275959A1, “COMPOUNDS AND METHODS OF THEIR USE” (LEXICON PHARMACEUTICALS, INC., priority 2024, published 2025).

Key:
[1] = biological target: T1, hACSL5 (Homo sapiens (Human), UniProt Q9ULC5); test: Human ACSL5 coupled enzyme Amplex Red assay; format: biochemical; details: read-out: hACSL5 IC50
Method in brief: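 Amplex Red coupled readout: 1 mM ATP, 25 μM oleate and 30 μM CoA were added to compound-preincubated enzyme (20 nM, residues 33-683, insect-cell expressed, His-tagged) with coupling peroxidase and acyl-CoA oxidase at pH 7.6. Signal was read at 535/590 nm after 10 minutes at 25° C., and Hill fits yielded half-maximal and maximal inhibition.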
Target sequence in this assay (Q9ULC5 33-683): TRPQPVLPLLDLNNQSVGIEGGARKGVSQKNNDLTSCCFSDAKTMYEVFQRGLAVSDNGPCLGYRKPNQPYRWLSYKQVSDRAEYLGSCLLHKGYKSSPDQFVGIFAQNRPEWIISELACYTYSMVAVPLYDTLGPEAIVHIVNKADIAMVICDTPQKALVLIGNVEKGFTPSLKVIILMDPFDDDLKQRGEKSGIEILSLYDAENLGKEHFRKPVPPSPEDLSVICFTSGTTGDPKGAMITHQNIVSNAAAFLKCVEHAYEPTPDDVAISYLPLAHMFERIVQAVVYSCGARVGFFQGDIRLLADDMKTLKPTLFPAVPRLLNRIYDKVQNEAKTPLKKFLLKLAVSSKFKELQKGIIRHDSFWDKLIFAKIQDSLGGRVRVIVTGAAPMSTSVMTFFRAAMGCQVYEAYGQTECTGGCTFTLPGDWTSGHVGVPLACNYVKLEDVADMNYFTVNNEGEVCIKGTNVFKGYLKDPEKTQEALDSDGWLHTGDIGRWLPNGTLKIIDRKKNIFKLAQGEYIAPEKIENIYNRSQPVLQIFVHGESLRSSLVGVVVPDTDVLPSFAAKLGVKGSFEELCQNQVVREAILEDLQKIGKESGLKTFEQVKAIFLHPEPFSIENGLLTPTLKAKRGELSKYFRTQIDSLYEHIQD

[2] = biological target: T1, hACSL5; test: Cell-based assay (CBA) with B12FA in hACSL5-transfected Expi293F / FlpIn TRex293 cells; details: hACSL5-expressing cells
Method in brief: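 hACSL5-expressing Expi293F or tetracycline-induced FlpIn TRex293 cells, serum- and glucose-starved 1 h, then treated 3 h with serially diluted compound plus 20 µM B12FA. After fixation, 630/520 nm emission ratio (ex 485 nm) gave % inhibition versus no-inhibitor and 10 µM compound/non-induced controls; IC50 by Hill fit.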
Target sequence in this assay (Q9ULC5 whole entry, the tested form may be a part): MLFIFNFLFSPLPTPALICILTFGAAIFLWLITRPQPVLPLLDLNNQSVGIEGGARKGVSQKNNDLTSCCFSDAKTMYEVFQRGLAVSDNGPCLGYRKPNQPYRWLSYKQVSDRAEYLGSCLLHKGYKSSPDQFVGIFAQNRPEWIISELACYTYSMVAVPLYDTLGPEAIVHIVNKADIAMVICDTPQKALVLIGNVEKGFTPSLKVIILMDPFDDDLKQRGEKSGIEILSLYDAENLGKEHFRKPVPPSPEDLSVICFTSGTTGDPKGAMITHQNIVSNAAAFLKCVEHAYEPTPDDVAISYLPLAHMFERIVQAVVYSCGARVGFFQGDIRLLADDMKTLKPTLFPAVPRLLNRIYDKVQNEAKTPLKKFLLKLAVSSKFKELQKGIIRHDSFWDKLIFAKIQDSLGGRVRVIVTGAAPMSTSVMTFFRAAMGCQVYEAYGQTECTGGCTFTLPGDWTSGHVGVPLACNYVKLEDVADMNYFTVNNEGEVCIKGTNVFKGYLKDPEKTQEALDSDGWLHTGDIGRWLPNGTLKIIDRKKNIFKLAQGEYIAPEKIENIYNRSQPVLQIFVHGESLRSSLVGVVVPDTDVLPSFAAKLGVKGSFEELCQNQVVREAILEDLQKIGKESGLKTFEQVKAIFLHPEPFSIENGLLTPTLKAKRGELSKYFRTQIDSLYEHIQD

| IC50 [1] | IC50 [2] | Structure (SMILES) |
| --- | --- | --- |
| < 100 nM | < 100 nM | CC[C@@H](Oc1ccc(C(=O)NS(=O)(=O)N2CCC(OC3CCN(C)CC3)CC2)cc1C(F)(F)F)c1ccc(Oc2ccccn2)cn1 [(R)-N-((4-((1-methylpiperidin-4-yl)oxy)piperidin-1-yl)sulfonyl)-4-(1-(5-(pyridin-2-yloxy)pyridin-2-yl)propoxy)-3-(trifluoromethyl)benzamide] |
| < 100 nM | > 500 nM | CC[C@@H](Oc1ccc(C(=O)NS(=O)(=O)c2ccc(OCc3c[nH]cn3)cc2)c(F)c1F)c1ccc(OCCOC)cn1 [(R)-N-((4-((1H-imidazol-4-yl)methoxy)phenyl)sulfonyl)-2,3-difluoro-4-(1-(5-(2-methoxyethoxy)pyridin-2-yl)propoxy)benzamide] |
| < 100 nM | < 100 nM | CC[C@@H](Oc1ccc(C(=O)NS(=O)(=O)N2CCN(CC3CC3)CC2)c(F)c1F)c1ccc(Oc2ccccn2)cn1 [(R)-N-((4-(cyclopropylmethyl)piperazin-1-yl)sulfonyl)-2,3-difluoro-4-(1-(5-(pyridin-2-yloxy)pyridin-2-yl)propoxy)benzamide] |
| < 100 nM | < 100 nM | CC[C@@H](Oc1ccc(C(=O)NS(=O)(=O)N2CCN(C3CCC3)CC2)c(F)c1F)c1ccc(Oc2ccccn2)cn1 [(R)-N-((4-cyclobutylpiperazin-1-yl)sulfonyl)-2,3-difluoro-4-(1-(5-(pyridin-2-yloxy)pyridin-2-yl)propoxy)benzamide] |
| < 100 nM | < 100 nM | CC[C@@H](Oc1ccc(C(=O)NS(=O)(=O)N2CCN(C3CCC3)CC2)c(F)c1F)c1ccc(OCC2CC2)cn1 [(R)-N-((4-cyclobutylpiperazin-1-yl)sulfonyl)-4-(1-(5-(cyclopropylmethoxy)pyridin-2-yl)propoxy)-2,3-difluorobenzamide] |
| < 100 nM | 100 to 500 nM | CC[C@@H](Oc1ccc(C(=O)NS(=O)(=O)N2CCN(C3CCCCC3)CC2)c(F)c1F)c1ccc(Oc2ccccn2)cn1 [(R)-N-((4-cyclohexylpiperazin-1-yl)sulfonyl)-2,3-difluoro-4-(1-(5-(pyridin-2-yloxy)pyridin-2-yl)propoxy)benzamide] |
| < 100 nM | > 500 nM | CC[C@@H](Oc1ccc(C(=O)NS(=O)(=O)N2CCN(C3CCCCC3)CC2)c(F)c1F)c1ccc(OCC2CC2)cn1 [(R)-N-((4-cyclohexylpiperazin-1-yl)sulfonyl)-4-(1-(5-(cyclopropylmethoxy)pyridin-2-yl)propoxy)-2,3-difluorobenzamide] |
| < 100 nM | 100 to 500 nM | CC[C@@H](Oc1ccc(C(=O)NS(=O)(=O)N2CCN(C3CCCC3)CC2)c(F)c1F)c1ccc(Oc2ccccn2)cn1 [(R)-N-((4-cyclopentylpiperazin-1-yl)sulfonyl)-2,3-difluoro-4-(1-(5-(pyridin-2-yloxy)pyridin-2-yl)propoxy)benzamide] |
| < 100 nM | 100 to 500 nM | CC[C@@H](Oc1ccc(C(=O)NS(=O)(=O)N2CCN(C3CCCC3)CC2)c(F)c1F)c1ccc(OCC2CC2)cn1 [(R)-N-((4-cyclopentylpiperazin-1-yl)sulfonyl)-4-(1-(5-(cyclopropylmethoxy)pyridin-2-yl)propoxy)-2,3-difluorobenzamide] |
| < 100 nM | 100 to 500 nM | CC[C@@H](Oc1ccc(C(=O)NS(=O)(=O)N2CCN(C3CC3)CC2)c(F)c1F)c1cc(Oc2ccccn2)ccn1 [(R)-N-((4-cyclopropylpiperazin-1-yl)sulfonyl)-2,3-difluoro-4-(1-(4-(pyridin-2-yloxy)pyridin-2-yl)propoxy)benzamide] |
| < 100 nM | < 100 nM | CC[C@@H](Oc1ccc(C(=O)NS(=O)(=O)N2CCN(C3CC3)CC2)c(F)c1F)c1ccc(Oc2ccccn2)cn1 [(R)-N-((4-cyclopropylpiperazin-1-yl)sulfonyl)-2,3-difluoro-4-(1-(5-(pyridin-2-yloxy)pyridin-2-yl)propoxy)benzamide] |
| < 100 nM | < 100 nM | CC[C@@H](Oc1ccc(C(=O)NS(=O)(=O)N2CCN(CC)CC2)c(F)c1F)c1ccc(Oc2ccccn2)cn1 [(R)-N-((4-ethylpiperazin-1-yl)sulfonyl)-2,3-difluoro-4-(1-(5-(pyridin-2-yloxy)pyridin-2-yl)propoxy)benzamide] |
| < 100 nM | < 100 nM | CC[C@@H](Oc1ccc(C(=O)NS(=O)(=O)N2CCN(CC)CC2)cc1C(F)(F)F)c1ccc(Oc2ccccn2)cn1 [(R)-N-((4-ethylpiperazin-1-yl)sulfonyl)-4-(1-(5-(pyridin-2-yloxy)pyridin-2-yl)propoxy)-3-(trifluoromethyl)benzamide] |
| < 100 nM | < 100 nM | CC[C@@H](Oc1ccc(C(=O)NS(=O)(=O)N2CCN(C)CC2)cc1C(F)(F)F)c1ccc(Oc2ccccn2)cn1 [(R)-N-((4-methylpiperazin-1-yl)sulfonyl)-4-(1-(5-(pyridin-2-yloxy)pyridin-2-yl)propoxy)-3-(trifluoromethyl)benzamide] |
| 100 to 500 nM | > 500 nM | CCOc1ccc(C(C)Oc2ccc(C(=O)NS(=O)(=O)c3ccc(OCCn4ccnc4)cc3)c(F)c2F)nc1 (stereo not drawn) [N-((4-(2-(1H-imidazol-1-yl)ethoxy)phenyl)sulfonyl)-4-(1-(5-ethoxypyridin-2-yl)ethoxy)-2,3-difluorobenzamide] |
| < 100 nM | > 500 nM | CC[C@@H](Oc1ccc(C(=O)NS(=O)(=O)c2ccc(O[C@@H]3C[C@H]4C[C@@H]3CN4)cc2)c(F)c1F)c1ccc(OCC2CC2)cn1 [N-((4-(((1R,4R,5R)-2-azabicyclo[2.2.1]heptan-5-yl)oxy)phenyl)sulfonyl)-4-((R)-1-(5-(cyclopropylmethoxy)pyridin-2-yl)propoxy)-2,3-difluorobenzamide] |

The next lines start with the compound.

| Structure (SMILES) | IC50 [1] | IC50 [2] |
| --- | --- | --- |
| CC[C@@H](Oc1ccc(C(=O)NS(=O)(=O)c2ccc(OCCNC3CC3)cc2)c(F)c1F)c1ccc(OCC2CC2)cn1 [(R)-N-((4-(2-(cyclopropylamino)ethoxy)phenyl)sulfonyl)-4-(1-(5-(cyclopropylmethoxy)pyridin-2-yl)propoxy)-2,3-difluorobenzamide] | < 100 nM | < 100 nM |
| CC[C@@H](Oc1ccc(C(=O)NS(=O)(=O)c2ccc(OCCN(C)C)cc2)c(F)c1F)c1cc(Oc2ccccn2)ccn1 [(R)-N-((4-(2-(dimethylamino)ethoxy)phenyl)sulfonyl)-2,3-difluoro-4-(1-(4-(pyridin-2-yloxy)pyridin-2-yl)propoxy)benzamide] | < 100 nM | 100 to 500 nM |
| CC[C@@H](Oc1ccc(C(=O)NS(=O)(=O)c2ccc(OCCN(C)C)cc2)c(F)c1F)c1ccc(OCCOC)cn1 [(R)-N-((4-(2-(dimethylamino)ethoxy)phenyl)sulfonyl)-2,3-difluoro-4-(1-(5-(2-methoxyethoxy)pyridin-2-yl)propoxy)benzamide] | 100 to 500 nM | > 500 nM |
| C[C@@H](Oc1ccc(C(=O)NS(=O)(=O)c2ccc(OCCN(C)C)cc2)c(F)c1F)c1ccc(Oc2ccccn2)cn1 [(R)-N-((4-(2-(dimethylamino)ethoxy)phenyl)sulfonyl)-2,3-difluoro-4-(1-(5-(pyridin-2-yloxy)pyridin-2-yl)ethoxy)benzamide] | < 100 nM | 100 to 500 nM |
| CC[C@@H](Oc1ccc(C(=O)NS(=O)(=O)c2ccc(OCCN(C)C)cc2)c(F)c1F)c1ccc(Oc2ccccn2)cn1 [(R)-N-((4-(2-(dimethylamino)ethoxy)phenyl)sulfonyl)-2,3-difluoro-4-(1-(5-(pyridin-2-yloxy)pyridin-2-yl)propoxy)benzamide] | < 100 nM | 100 to 500 nM |
| C[C@@H](Oc1ccc(C(=O)NS(=O)(=O)c2ccc(OCCN(C)C)cc2)cc1C(F)(F)F)c1ccc(Oc2ccccn2)cn1 [(R)-N-((4-(2-(dimethylamino)ethoxy)phenyl)sulfonyl)-4-(1-(5-(pyridin-2-yloxy)pyridin-2-yl)ethoxy)-3-(trifluoromethyl)benzamide] | < 100 nM | < 100 nM |
| CC[C@@H](Oc1ccc(C(=O)NS(=O)(=O)c2ccc(OCCN(C)C)cc2)cc1C(F)(F)F)c1ccc(Oc2ccccn2)cn1 [(R)-N-((4-(2-(dimethylamino)ethoxy)phenyl)sulfonyl)-4-(1-(5-(pyridin-2-yloxy)pyridin-2-yl)propoxy)-3-(trifluoromethyl)benzamide] | < 100 nM | < 100 nM |
| CC[C@@H](Oc1ccc(C(=O)NS(=O)(=O)c2ccc(OC34CCN(CC3)C4)cc2)c(F)c1F)c1ccc(OCC2CC2)cn1 [(R)-N-((4-((1-azabicyclo[2.2.1]heptan-4-yl)oxy)phenyl)sulfonyl)-4-(1-(5-(cyclopropylmethoxy)pyridin-2-yl)propoxy)-2,3-difluorobenzamide] | < 100 nM | 100 to 500 nM |
| C[C@@H](Oc1ccc(C(=O)NS(=O)(=O)N2CCC(OC3CCN(C)CC3)CC2)cc1C(F)(F)F)c1ccc(Oc2ccccn2)cn1 [(R)-N-((4-((1-methylpiperidin-4-yl)oxy)piperidin-1-yl)sulfonyl)-4-(1-(5-(pyridin-2-yloxy)pyridin-2-yl)ethoxy)-3-(trifluoromethyl)benzamide] | < 100 nM | < 100 nM |
| CC[C@@H](Oc1ccc(C(=O)NS(=O)(=O)c2ccc(OCCN(C)C)cc2)c(F)c1F)c1ccc(OC2CC(OC)C2)cn1 (stereo partly drawn) [N-((4-(2-(dimethylamino)ethoxy)phenyl)sulfonyl)-2,3-difluoro-4-((R)-1-(5-((1R,3R)-3-methoxycyclobutoxy)pyridin-2-yl)propoxy)benzamide] | < 100 nM | 100 to 500 nM |
| CC[C@@H](Oc1ccc(C(=O)NS(=O)(=O)c2ccc(OCCN(C)C)cc2)cc1C(F)(F)F)c1ccc(OC2CC(OC)C2)cn1 (stereo partly drawn) [N-((4-(2-(dimethylamino)ethoxy)phenyl)sulfonyl)-4-((R)-1-(5-((1R,3R)-3-methoxycyclobutoxy)pyridin-2-yl)propoxy)-3-(trifluoromethyl)benzamide] | 100 to 500 nM | 100 to 500 nM |
